Assay results: patent publication US5763464A, “Retroviral agents containing anthranilamide, substituted benzamide and other subunits, and methods of using same” (The United States of America as represented by the …, priority 1995, dated 1998)
Read-outs that look alike come from different tables or passages of the source. Each block holds one compound with its values, some of them ahead of it.

Experiments:
[1] = molecular target: T1, HIV-1 protease (wild-type, WT) (Human immunodeficiency virus type 1 group M subtype B, UniProt P04585); assay: biochemical
T1 construct: purified HIV-1 protease (wild-type, WT)
Method: The inhibition constants (Ki) for the compounds of the above examples were determined using purified HIV-1 protease (wild-type, WT) (Tables I, II and III). Ki is an inhibition constant of a given compound as derived by enzyme kinetics. A low Ki represents a high affinity of the compound for the enzyme, i.e., tight binding or low dissociation. Inhibition of the cleavage was assayed using a fluorogenic substrate available from Molecular Probes, Inc., Eugene, Oreg., and described in Kageyama et al., Antimicrob. Agents. Chemother., 37, 272 (1993), and a fluorogenic substrate available from Bachem California, Torrance, Calif., and described in Kageyama et al. (1993), supra. Percent inhibition is the percentage inhibition of an enzyme's activity by a given compound at a given concentration.

[2] = tested on: HIV-1 (CEM cells chronically infected with HIV-1); assay: Anti-retroviral activity in CEM cells chronically infected with HIV-1, soluble formazan assay; format: cell-based; conditions: Human immunodeficiency virus 1, CCRF-CEM
Method: Using the soluble formazan assay described by Weislow et al. (J. Nat'l. Cancer Inst., 81, 577-586 (1989)), CEM cells chronically infected with HIV-1 were used to assay the anti-retroviral activity of test compounds described herein. The concentration of compound that inhibits 50% of viral activity (EC50; determined as described in Weislow et al. (1989), supra) and the inhibition constant (Ki, as defined in Example 7) for the compound were determined.

CEM cells = assay: Toxicity (IC50) in CEM cells, soluble formazan assay; conditions: Homo sapiens, CCRF-CEM
[3] = Table I, unit inferred, read-out: Ki

Compound: CC(C)(C)OC(=O)N[C@@H](Cc1ccccc1)C[C@H](O)[C@H](Cc1ccccc1)NC(=O)c1ccccc1NC(=O)OCc1ccccn1 [AN-42]
Ki ([1]; Table II, read-out: Ki): 0.85 nM | EC50 ([2]; Table II, read-out: EC50): < 1000 nM | IC50 (CEM cells): 23000 nM

Compound: CC(C)(C)NC(=O)N[C@@H](Cc1ccccc1)C[C@H](O)[C@H](Cc1ccccc1)NC(=O)c1ccccc1NC(=O)OCc1ccccn1 [AN-43]
Ki ([1]; Table II, read-out: Ki): 1.05 nM | EC50 ([2]; Table II, read-out: EC50): 1600 nM | IC50 (CEM cells): 33000 nM

Compound: Nc1ccccc1C(=O)N[C@@H](Cc1ccccc1)C[C@H](O)[C@H](Cc1ccccc1)NC(=O)c1ccccc1N [AN-72]
Ki [1, 3]: 96 nM

Compound: Cc1c(O)cccc1C(=O)N[C@@H](Cc1ccccc1)[C@@H](O)C[C@H](Cc1ccccc1)NC(=O)c1ccc(O)cc1 [AN-88]
Ki [1, 3]: 3.65 nM

Compound: Cc1c(O)cccc1C(=O)N[C@@H](Cc1ccccc1)[C@@H](O)C[C@H](Cc1ccccc1)NC(=O)c1cccc(O)c1 [AN-89]
Ki [1, 3]: 1.88 nM

Compound: COc1ccc(S(=O)(=O)N[C@@H](Cc2ccccc2)C[C@H](O)[C@H](Cc2ccccc2)NC(=O)c2cccc(O)c2C)cc1 [AN-91]
Ki ([1]; Table I, unit printed in the line, read-out: Ki): 1500 nM

Compound: O=C(Nc1ccccc1C(=O)N[C@@H](Cc1ccccc1)[C@@H](O)[C@@H](O)[C@H](Cc1ccccc1)NC(=O)c1cccc(O)c1)OCc1ccccc1 [DN-3]
Ki ([1]; Table II, read-out: Ki): 5.9 nM

Compound: O=C(N[C@@H](Cc1ccccc1)[C@H](O)[C@H](O)[C@H](Cc1ccccc1)NC(=O)c1cccc(O)c1)c1cccc(O)c1 [Diol-10]
Ki ([1]; Table I, unit not given): 22/25

Compound: O=C(N[C@@H](Cc1ccccc1)[C@H](O)[C@H](O)[C@H](Cc1ccccc1)NC(=O)c1ccc(O)cc1)c1ccc(O)cc1 [Diol-51]
Ki [1, 3]: 276 nM

Compound: O=C(N[C@@H](Cc1ccccc1)[C@H](O)[C@H](O)[C@H](Cc1ccccc1)NC(=O)c1ccccc1)c1ccccc1 [Diol-56]
Ki [1, 3]: 40 nM

Compound: Cc1ccccc1C(=O)N[C@@H](Cc1ccccc1)[C@H](O)[C@H](O)[C@H](Cc1ccccc1)NC(=O)c1ccccc1C [Diol-57]
Ki [1, 3]: 8 nM

Compound: O=C(N[C@@H](Cc1ccccc1)[C@H](O)[C@H](O)[C@H](Cc1ccccc1)NC(=O)c1ccccc1O)c1ccccc1O [Diol-58]
Percent inhibition (Ki column) ([1]; Table I, 10μ): 32%

Compound: Cc1c(O)cccc1C(=O)N[C@@H](Cc1ccccc1)C[C@H](O)[C@H](Cc1ccccc1)NC(=O)c1ccccc1NC(=O)OCc1ccccn1 [LL-69]
Ki ([1]; Table II, read-out: Ki): 0.68 nM

Compound: CC(C)(C)OC(=O)N[C@@H](Cc1ccccc1)[C@@H](O)[C@@H](O)[C@H](Cc1ccccc1)NC(=O)c1ccccc1NC(=O)OCc1ccccn1 [LL-70]
Ki ([1]; read-out: Ki): 0.14 nM

Compound: CC(C)C(NC(=O)OCc1ccccn1)C(=O)N[C@@H](Cc1ccccc1)[C@@H](O)[C@@H](O)[C@H](Cc1ccccc1)NC(=O)c1ccccc1NC(=O)OCc1ccccn1 (stereo partly drawn) [LL-73, (2S,3R,4S,5S)-2-[N-(N-(2-pyridinylmethoxy)valinyl)amino]-5-[N-[N-((2-pyridinylmethoxy)carbonyl)anthranilyl]amino]-3,4-dihydroxy-1,6-diphenyl hexane]
EC50 ([2]; Table III): 4 nM | IC50 (CEM cells): 47000 nM

Compound: O=C(Nc1ccccc1C(=O)N[C@@H](Cc1ccccc1)C[C@H](O)[C@H](Cc1ccccc1)NC(=O)O[C@H]1CCOC1)OCc1ccccn1 [LL-101, (2S,3S,5S)-5-[N-[N-((2-pyridinylmethoxy)carbonyl)anthranilyl]amino]2-[N-((3-S-(tetrahydrofuranyl)oxy)carbonyl)amino]-1,6-diphenyl-3-hydroxy hexane]
Ki [1]: 0.042 ± 0.007 nM

Other lines, results leading:

Ki ([1]; Table III, read-out: Ki): 0.76 nM
Compound: O=C(Nc1ccccc1C(=O)N[C@@H](Cc1ccccc1)[C@H](O)[C@H](O)[C@H](Cc1ccccc1)NC(=O)c1cccc(O)c1)OCc1ccccn1 [ND-4]

Ki ([1]; read-out: Ki): 8.4 nM
Compound: CC(C)(C)OC(=O)N[C@@H](Cc1ccccc1)[C@H](O)[C@H](O)[C@H](Cc1ccccc1)NC(=O)OC(C)(C)C [RS-196]

Ki [1, 3]: 8.3 nM
Compound: Cc1c(O)cccc1C(=O)N[C@@H](Cc1ccccc1)[C@H](O)[C@H](O)[C@H](Cc1ccccc1)NC(=O)OC(C)(C)C [RS-198]

Ki [1, 3]: 6.6 nM
Compound: Cc1ccc(O)cc1C(=O)N[C@@H](Cc1ccccc1)C[C@H](O)[C@H](Cc1ccccc1)NC(=O)c1cc(O)ccc1C [RS-201]
